Laboratory results published in paper PMC6817585, “Simultaneous Determination of Five Alkaloids by HPLC-MS/MS Combined With Micro-SPE in Rat Plasma and Its Application to Pharmacokinetics After Oral Administration of Lotus Leaf Extract” (Frontiers in Pharmacology, 2019).

Legend:
[1] = Stability of stock and working solutions; format: physicochemical; conditions: working solution, n = 6
Experimental: (§1) The stabilities (including auto-sampler, freeze–thaw cycles, and short-time and long-term stability) of all analytes were obtained by testing QC samples of four concentrations. Moreover, the stabilities for stock and working solution were assessed with mixed standard substance (100 ng·ml^−1) and the QC sample solutions of four concentration levels, respectively. These solutions were achieved by diluting stock solutions kept at 4°C for 2 weeks. For IS, the evaluated procedures of two stabilities were same as the five alkaloids.

[2] = Stability of analytes in rat plasma QC samples (auto-sampler, freeze-thaw, short-time, long-term); format: in vitro ADME; conditions: rat, plasma
Experimental: as §1

[3] = Pharmacokinetics of five alkaloids in rat plasma after oral administration of lotus leaf extract; format: in vivo, Male Sprague-Dawley rats; conditions: rat, in vivo, po
Experimental: All analyses were performed on Agilent 1200 HPLC system (Agilent Corporation, USA) and API 3200 triple-quadrupole mass spectrometer (Concord, Ontario, Canada) in multiple-reaction monitoring (MRM) with positive ionization mode. Acetonitrile (A) and formic acid aqueous solution (B) (0.1%, v/v) is used to separate the analytes on Eclipse plus C18 column (4.6 mm × 100 mm, 1.8 µm) with a guard C18 column (2.1 mm × 12.5 mm, 5 µm). The gradient of elution is as follows: 5%–60% A at 0 to 4 min, 60%–70% A at 4 to 5 min, 70%–93% A at 5 to 7 min, 93%–94% A at 7 to 11 min, 94%–5% A at 11 to 12 min, and 5%–5% A at 12 to 17 min. The flow rate and injection volume are 0.3 ml·min^-1 and 5 µl, respectively. The main parameters of ion source including the ion spray voltage, the curtain gas, and temperature are set at 5000 V, 35 psi, and 450°C, respectively.
The real plasma sample (100 µl) and IS solution (10 µl) were vortex-mixed for 1 min. The sample was carried out with the SPE column (Cleanert PEP-2, 40–60 µm, 60 Å, 10 mg/1 ml; Phenomenex, Torrance, CA, USA). First, SPE columns were activated by 50% methanol in water (1 ml) and 0.1% formic acid in water (1 ml) and were used to activate the SPE column in sequence. Second, columns were washed with 200 µl methanol (20%, v/v) and eluted with acetonitrile (400 µl) after the plasma samples were added. Finally, the eluent was centrifuged for 10 min with 14,000 rpm. Then final solutions were injected into the HPLC-MS/MS and analyzed.
The pharmacokinetic study was conducted in accordance with the Guidelines for the Care and Use of Laboratory Animals by the US National Institutes of Health and approved by the Animal Ethics Committee of Tianjin University of Traditional Chinese Medicine (permit number: TCM-LAEC2019022, Tianjin, China),. Male Sprague-Dawley rats (240–260 g) were fed in the animal laboratory of the Tianjin University of Traditional Chinese Medicine under the standard conditions. These rats were allowed free to get standard laboratory food and water and conformed for 1 week until 12 h before experiment. These rats (n = 10) were fasted, although they were still given water for 12 h, before the oral administration of lotus leaf extract. […] The plasma samples were centrifuged in 10 min at 7000 rpm and kept at −20°C until analyzed.
All of the pharmacokinetic parameters were calculated by one compartment model with DAS 1.0 software (Medical College of Wannan). The maximum drug concentration (Cmax) and the time to reach Cmax (Tmax) were acquired from observed concentration–time profile for oral administration in plasma. All data were shown as mean ± SD.

COc1cc2c3c(c1OC)C1(C=CC(=O)C=C1)C[C@H]3N(C)CC2 [Pronuciferine, pronuciferine]
Remain, working solution ([1]; 2 ng/ml): 92.9% | Remain, working solution ([1]; 100 ng/ml): 99.9% | Remain, working solution ([1]; 500 ng/ml): 105% | Remain, working solution ([1]; concentration LLOQ, from stock kept at 4°C for 2 weeks): 99.3% | Remain, freeze thaw cycles [2]: 81.9% | Remain, freeze thaw cycles ([2]; 2 ng/ml): 93.3% | Remain, freeze thaw cycles ([2]; 100 ng/ml): 85.5% | Remain, freeze thaw cycles ([2]; 500 ng/ml): 87.2% | Remain, −80°C for 1 month [2]: 99.2% | Remain, −80°C for 1 month ([2]; 2 ng/ml): 99.0% | Remain, −80°C for 1 month ([2]; 100 ng/ml): 93.9% | Remain, −80°C for 1 month ([2]; 500 ng/ml): 90.4% | Remain, autosampler for 24 h [2]: 85.5% | Remain, room temperature for 24 h [2]: 89.2% | Remain, autosampler for 24 h ([2]; 2 ng/ml): 88.3% | Remain, room temperature for 24 h ([2]; 2 ng/ml): 106% | Remain, autosampler for 24 h ([2]; 100 ng/ml): 92.6% | Remain, room temperature for 24 h ([2]; 100 ng/ml): 98.9% | Remain, autosampler for 24 h ([2]; 500 ng/ml): 87.5% | Remain, room temperature for 24 h ([2]; 500 ng/ml): 87.1% | AUC ([3]; male, Sprague-Dawley, 2.4 g/kg): 2030 ± 717 ng·h/mL | AUC(0-inf) ([3]; male, Sprague-Dawley, 2.4 g/kg): 2100 ± 704 ng·h/mL | Cmax ([3]; male, Sprague-Dawley, 2.4 g/kg): 210 ± 87 ng/mL | MRT ([3]; male, Sprague-Dawley, 2.4 g/kg): 7.43 ± 1.18 h | MRT inf ([3]; male, Sprague-Dawley, 2.4 g/kg): 8.36 ± 1.98 h | Tmax ([3]; male, Sprague-Dawley, 2.4 g/kg): 4.9 ± 1.37 h | half-life ([3]; male, Sprague-Dawley, 2.4 g/kg): 4.44 ± 1.88 h | Absorption after orally administrating the lotus leaf extract (in words) [3]: slow absorption | Plasma exposure (in words) [3]: abundant plasma exposure | AUCs(0–24 h) ([3]; 2.4 g/kg): 2030 ± 716 ng·h/mL
